In patent publication US20220380347A1, “INHIBITORS OF CYSTEINE PROTEASES AND METHODS OF USE THEREOF” (Pardes Biosciences, Inc., priority 2020, published 2022):
Like-named read-outs stand apart in the source and are kept apart here.

Columns and labels:
[1] = target: COVID-19 (nCoV-2019, SARS-CoV2) Mpro (Severe acute respiratory syndrome coronavirus 2, UniProt P0DTD1); assay: COVID-19 (nCoV-2019, SARS-CoV2) Mpro enzymatic assay; type: biochemical; settings: 25 nM Mpro, 25 μM substrate; read-out: COVID-19 Mpro IC50
229E Mpro = 229E Mpro (Human coronavirus 229E, UniProt P0C6X1); assay: 229E Mpro enzymatic assay (standard methods, SARS-CoV2 Mpro assay given as exemplary); type: biochemical, human coronavirus (HCov) 229E
Procedure: Compounds were assayed using standard methods to assess compound activity and IC50. As an exemplary for assessment of the SARS-COV2 Mpro, the C-His6-tagged Mpro (NC_045512) was cloned, expressed in E. coli and purified. The assay buffer contained 20 mM of Tris-HCl (pH 7.3), 100 mM of NaCl, 1 mM of EDTA, 5 mM of TCEP and 0.1% BSA. The final concentrations of the Mpro protein and substrate were 25 nM and 25 μM, respectively, in the Mpro enzymatic assay. The Km of the Mpro substrate for the protease was 13.5 μM.
The compounds were added to an assay plate. […] For no inhibition control (ZPE, zero percent effect), no compound was added.
IC50 values of compounds were calculated with the GraphPad Prism software using the nonlinear regression model of log(inhibitor) vs. response—Variable slope (four parameters). The inhibition activity was calculated using the formula below, IC50 values is calculated using the Inhibition % data.
Inhibition %=[(Sample-Average ZPE)/(Average HPE-Average ZPE)]*100%^#

HCov OC43 = assay: HCoV OC43 cytopathic effect (CPE) assay, CellTiter Glo; type: cell-based, human coronavirus (HCov) OC43
Procedure: Example 238: Evaluation of antiviral activity of compounds against human coronavirus (HCov) 229E and OC43 in the cytopathic effect (CPE) assays
Compounds were assayed using standard methods against multiple coronaviral strains, including HCoV 229E and OC43 strains. The antiviral activity of compounds was calculated based on the protection of the virus-induced CPE at each concentration normalized by the virus control.
Reference compound used was remdesivir; detection reagent: CellTiter Glo.) The CPE were measured by CellTiter Glo following the manufacturer's manual. The antiviral activity of compounds was calculated based on the protection of the virus-induced CPE at each concentration normalized by the virus control.
Cell viability was measured with CellTiter Glo.

[2] = read-out: OC43 IC50 (uM) MEDIAN, median
[3] = Betacoronavirus 1, OC43, read-out: OC43 IC50 (uM) MEDIAN, median

229E Mpro, sequence (P0C6X1 2966-3267): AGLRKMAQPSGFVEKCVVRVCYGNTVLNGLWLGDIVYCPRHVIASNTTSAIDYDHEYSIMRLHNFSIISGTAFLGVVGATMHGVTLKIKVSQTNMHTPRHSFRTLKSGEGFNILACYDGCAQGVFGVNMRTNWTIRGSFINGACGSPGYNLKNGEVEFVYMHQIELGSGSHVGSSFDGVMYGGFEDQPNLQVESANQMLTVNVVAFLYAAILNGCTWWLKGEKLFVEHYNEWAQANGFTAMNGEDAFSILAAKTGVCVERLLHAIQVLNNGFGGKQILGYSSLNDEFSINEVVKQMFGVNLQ

SMILES	IC50 [1]	EC50 (229E Mpro; 229E Mpro EC50)	IC50 (HCov OC43; [2])	EC50 (229E Mpro; read-out: 229E Mpro EC50)	IC50 (HCov OC43; [3])
CC(C)(C)c1ccc(N(C(=O)C2CCC(F)(F)CN2C#N)C(C(=O)NC2CCCCC2)c2cccnc2)cc1 (single isomer, unassigned) [885 Isomer 1, N-(4-(tert-butyl)phenyl)-1-cyano-N-(2-(cyclohexylamino)-2-oxo-1-(pyridin-3-yl)ethyl)-5,5-difluoropiperidine-2-carboxamide]	> 30000 nM	10000 to 30000 nM	> 30 µM		
CC(C)(C)c1ccc(N(C(=O)C2CCC(F)(F)CN2C#N)C(C(=O)NC2CCCCC2)c2cccnc2)cc1 (single isomer, unassigned) [885 Isomer 2, N-(4-(tert-butyl)phenyl)-1-cyano-N-(2-(cyclohexylamino)-2-oxo-1-(pyridin-3-yl)ethyl)-5,5-difluoropiperidine-2-carboxamide]	< 2000 nM	< 2000 nM	2 to 10 µM		
CC1(O)CN(C(=O)C(c2cccnc2)N(C(=O)[C@H]2CCCN2C#N)c2ccc(C(C)(C)C)cc2)C1 (single isomer, unassigned) [955 Isomer 1]	2000 to 10000 nM	2000 to 10000 nM	2 to 10 µM		
CC1(O)CN(C(=O)C(c2cccnc2)N(C(=O)[C@H]2CCCN2C#N)c2ccc(C(C)(C)C)cc2)C1 (single isomer, unassigned) [955 Isomer 2]	10000 to 30000 nM		10 to 30 µM	2000 to 10000 nM	
CC1(C)CN(C#N)[C@@H](C(=O)N(c2ccc(S(F)(F)(F)(F)F)cc2)C(C(=O)NC2CCC(F)(F)CC2)c2cncc(F)c2)CO1 (single isomer, unassigned) [1086b Isomer 1]	< 2000 nM	< 2000 nM			< 2 µM
CC1(C)CN(C#N)[C@@H](C(=O)N(c2ccc(S(F)(F)(F)(F)F)cc2)C(C(=O)NC2CCC(F)(F)CC2)c2cncc(F)c2)CO1 (single isomer, unassigned) [1086b Isomer 2]	2000 to 10000 nM		2 to 10 µM	< 2000 nM	
N#CN1CC(F)(F)C[C@@H]1C(=O)N(c1ccc(S(F)(F)(F)(F)F)cc1)C(C(=O)NC1CCC(F)(F)CC1)c1cccnc1 (single isomer, unassigned) [1087 Isomer 1]	< 2000 nM	< 2000 nM	< 2 µM		
N#CN1CC(F)(F)C[C@@H]1C(=O)N(c1ccc(S(F)(F)(F)(F)F)cc1)C(C(=O)NC1CCC(F)(F)CC1)c1cccnc1 (single isomer, unassigned) [1087 Isomer 2]	2000 to 10000 nM		> 30 µM	< 2000 nM	
CC1(C)CCN(C#N)[C@H]1C(=O)N(c1ccc(S(F)(F)(F)(F)F)cc1)C(C(=O)NC1CCC(F)(F)CC1)c1cncc(F)c1 (single isomer, unassigned) [1094 Isomer 1]	< 2000 nM	< 2000 nM	< 2 µM		
CC1(C)CCN(C#N)[C@H]1C(=O)N(c1ccc(S(F)(F)(F)(F)F)cc1)C(C(=O)NC1CCC(F)(F)CC1)c1cncc(F)c1 (single isomer, unassigned) [1094 Isomer 2]	10000 to 30000 nM	2000 to 10000 nM	10 to 30 µM		
N#CN1C[C@@H]2C[C@@H]2[C@@H]1C(=O)N(c1ccc(S(F)(F)(F)(F)F)cc1)C(C(=O)NC1CCC(F)(F)CC1)c1cncc(F)c1 (single isomer, unassigned) [1096 Isomer 1]	2000 to 10000 nM	< 2000 nM			2 to 10 µM
N#CN1C[C@@H]2C[C@@H]2[C@@H]1C(=O)N(c1ccc(S(F)(F)(F)(F)F)cc1)C(C(=O)NC1CCC(F)(F)CC1)c1cncc(F)c1 (single isomer, unassigned) [1096 Isomer 2]	< 2000 nM		< 2 µM	< 2000 nM	
N#CN1C[C@@H]2CC[C@@H]2[C@@H]1C(=O)N(c1ccc(S(F)(F)(F)(F)F)cc1)C(C(=O)NC1CCC(F)(F)CC1)c1cncc(F)c1 (single isomer, unassigned) [1097 Isomer 1]	< 2000 nM	< 2000 nM			< 2 µM
N#CN1C[C@@H]2CC[C@@H]2[C@@H]1C(=O)N(c1ccc(S(F)(F)(F)(F)F)cc1)C(C(=O)NC1CCC(F)(F)CC1)c1cncc(F)c1 (single isomer, unassigned) [1097 Isomer 2]	10000 to 30000 nM	2000 to 10000 nM	2 to 10 µM		
N#C[C@H]1C[C@H](C(=O)N(c2ccc(S(F)(F)(F)(F)F)cc2)C(C(=O)NC2CCC(F)(F)CC2)c2cncc(F)c2)N(C#N)C1 (single isomer, unassigned) [1100 Isomer 1]	< 2000 nM	< 2000 nM			< 2 µM
N#C[C@H]1C[C@H](C(=O)N(c2ccc(S(F)(F)(F)(F)F)cc2)C(C(=O)NC2CCC(F)(F)CC2)c2cncc(F)c2)N(C#N)C1 (single isomer, unassigned) [1100 Isomer 2]	< 2000 nM		< 2 µM	< 2000 nM	
CS(=O)(=O)[C@H]1C[C@H](C(=O)N(c2ccc(S(F)(F)(F)(F)F)cc2)C(C(=O)NC2CCC(F)(F)CC2)c2cncc(F)c2)N(C#N)C1 (single isomer, unassigned) [1105 Isomer 1]	< 2000 nM	< 2000 nM			< 2 µM
CS(=O)(=O)[C@H]1C[C@H](C(=O)N(c2ccc(S(F)(F)(F)(F)F)cc2)C(C(=O)NC2CCC(F)(F)CC2)c2cncc(F)c2)N(C#N)C1 (single isomer, unassigned) [1105 Isomer 2]	< 2000 nM		< 2 µM	< 2000 nM	
CO[C@@H]1C[C@H](C(=O)N(c2ccc(S(F)(F)(F)(F)F)cc2)C(C(=O)N(C)CC(=O)NC2CC2)c2cccnc2)N(C#N)C1 (single isomer, unassigned) [1122 Isomer 1]	< 2000 nM		< 2 µM	< 2000 nM	
CO[C@@H]1C[C@H](C(=O)N(c2ccc(S(F)(F)(F)(F)F)cc2)C(C(=O)N(C)CC(=O)NC2CC2)c2cccnc2)N(C#N)C1 (single isomer, unassigned) [1122 Isomer 2]	10000 to 30000 nM		2 to 10 µM	< 2000 nM	
CC1(C)CN(C#N)[C@@H](C(=O)N(c2ccc(C(C)(C)C)cc2)C(C(=O)NC2CCOCC2)c2cccnc2)CO1 (single isomer, unassigned) [1141 Isomer 1]	2000 to 10000 nM	10000 to 30000 nM	2 to 10 µM		
CC1(C)CN(C#N)[C@@H](C(=O)N(c2ccc(C(C)(C)C)cc2)C(C(=O)NC2CCOCC2)c2cccnc2)CO1 (single isomer, unassigned) [1141 Isomer 2]	< 2000 nM	< 2000 nM	2 to 10 µM		
CC1(C)CN(C#N)[C@@H](C(=O)N(c2ccc(C(C)(C)C)cc2)C(C(=O)NC2CCOCC2)c2cccnc2)CO1 (single isomer, unassigned) [1141 Isomer 3]	> 30000 nM	10000 to 30000 nM	> 30 µM		
CC1(C)CN(C#N)[C@@H](C(=O)N(c2ccc(C(C)(C)C)cc2)C(C(=O)NC2CCOCC2)c2cccnc2)CO1 (single isomer, unassigned) [1141 Isomer 4]	10000 to 30000 nM	< 2000 nM	10 to 30 µM		
CC(C)(C)c1ccc(N(C(=O)[C@H]2C[C@@](C)(O)CN2C#N)C(C(=O)NC2CCOCC2)c2cccnc2)cc1 (single isomer, unassigned) [1142 Isomer 1]	< 2000 nM	< 2000 nM	< 2 µM		
CC(C)(C)c1ccc(N(C(=O)[C@H]2C[C@@](C)(O)CN2C#N)C(C(=O)NC2CCOCC2)c2cccnc2)cc1 (single isomer, unassigned) [1142 Isomer 2]	2000 to 10000 nM		10 to 30 µM	< 2000 nM	
CO[C@@H]1C[C@H](C(=O)N(c2ccc(S(F)(F)(F)(F)F)cc2)C(C(=O)N2CCN(C(=O)OC(C)(C)C)C2)c2cccnc2)N(C#N)C1 (single isomer, unassigned) [1148d Isomer 1]	2000 to 10000 nM	< 2000 nM			< 2 µM
C[C@@]1(O)C[C@H](C(=O)N(c2ccc(S(F)(F)(F)(F)F)cc2)C(C(=O)NC2CCC(F)(F)CC2)c2ccc(F)nc2)N(C#N)C1 (single isomer, unassigned) [1157 Isomer 1]	< 2000 nM	< 2000 nM			< 2 µM
C[C@@]1(O)C[C@H](C(=O)N(c2ccc(S(F)(F)(F)(F)F)cc2)C(C(=O)NC2CCC(F)(F)CC2)c2ccc(F)nc2)N(C#N)C1 (single isomer, unassigned) [1157 Isomer 2]	2000 to 10000 nM		2 to 10 µM	< 2000 nM	
C[C@@]1(O)C[C@H](C(=O)N(c2ccc(S(F)(F)(F)(F)F)cc2)C(C(=O)NC2CCC(F)(F)CC2)c2cccnc2F)N(C#N)C1 (single isomer, unassigned) [1158 Isomer 1]	< 2000 nM	< 2000 nM			< 2 µM
